≈ marks a conversion by molar mass, not a printed value.
System: MRSA (USA300 ATCC BAA-1556)
Assay: Minimum inhibitory concentrations against MRSA by broth microdilution
Type: cell-based, Staphylococcus aureus
Conditions: Mueller Hinton II broth with 0.002% (v/v) Polysorbate-, compound = scaffold with R′ and R″ (table column)
Procedure: Example 7—Minimum Inhibitory Concentrations Against MRSA Determined Using Broth Microdilution
In vitro activities were determined using CLSJ-guided broth susceptibility testing to measure drug minimum inhibitory concentrations (MICs) of compounds against MRSA (USA300 ATCC BAA-1556). The test medium used for the MIC assay was Mueller Hinton II broth made with 0.002% (v/v) Polysorbate-. Media was prepared fresh on the day of testing and stored according to guidelines from CLSJ.

Row | SMILES | MIC
1 | CCCCCCCCCCCCNC(=O)CNC1(C)CC(OC2C(Oc3c4cc5cc3Oc3ccc(cc3Cl)C(O)C3NC(=O)C(NC(=O)C5NC(=O)C(CC(N)=O)NC(=O)C(NC(=O)C(CC(C)C)NC)C(O)c5ccc(c(Cl)c5)O4)c4ccc(O)c(c4)-c4c(O)cc(O)cc4C(C(=O)O)NC3=O)OC(CO)C(O)C2O)OC(C)C1O (centres unmarked) [RV95 (R″ = H)] | 0.031 µg/mL (≈ 0.0185 µM)
2 | CCCCCCCCCCCC(=O)NCCNC1(C)CC(OC2C(Oc3c4cc5cc3Oc3ccc(cc3Cl)C(O)C3NC(=O)C(NC(=O)C5NC(=O)C(CC(N)=O)NC(=O)C(NC(=O)C(CC(C)C)NC)C(O)c5ccc(c(Cl)c5)O4)c4ccc(O)c(c4)-c4c(O)cc(O)cc4C(C(=O)O)NC3=O)OC(CO)C(O)C2O)OC(C)C1O (centres unmarked) [RV62 (R″ = H)] | 0.016 µg/mL (≈ 0.00955 µM)

Reference: patent US20220024980A1, “LIPO-GLYCOPEPTIDE CLEAVABLE DERIVATIVES AND USES THEREOF” (INSMED INCORPORATED, priority 2018, published 2022)
